According to publication PMC7284870, “Antimicrobial Peptides from Rat-Tailed Maggots of the Drone Fly Eristalis tenax Show Potent Activity against Multidrug-Resistant Gram-Negative Bacteria” (Microorganisms, 2020):
In brackets after ≈: the same amount, converted by molar mass. Where two headings read alike, the source gives them in different places. No end group written: not given here.

What was measured:
[1] = tested on: Enterobacter aerogenes clinical isolate (1); assay: MIC, clinical isolates; assay type: cell-based; conditions: Klebsiella aerogenes; Table S1, RKI 1026/14-1
Description: (§1) The strains that were used in this study (Table 2 and Table S1) were cultivated at 37 °C in cation-adjusted Mueller–Hinton broth (CAMB) in Erlenmeyer flasks, or on the same medium with agar in Petri dishes. Exceptionally, Mycobacterium smegmatis was cultivated at 37 °C in brain heart infusion (BHI) medium that was supplemented with 1% Tween-80 in Erlenmeyer flasks, or on the same medium lacking detergent but with agar in Petri dishes. Strains listed with Robert Koch Institute (RKI) strain numbers are clinical isolates from the RKI strain collection originating from hospitalized patients in Germany. The remaining strains originated from the Sanofi strain collection and they were originally purchased from the American Type Culture Collection or the German Collection of Microorganisms and Cell Cultures. Meropenem/colistin-resistant strains were maintained, as described above, with the appropriate antibiotic added at levels below the minimal inhibitory concentration (MIC).
(§2) The MIC values were determined in 384-well microtiter plates with an assay volume of 20 µL. Immediately before each assay, the cultures of test organisms (bacteria grown for 18 h, Candida albicans and M. smegmatis grown for 48 h) were diluted with the appropriate medium to a density of 1 × 10^6 cells/mL (C. albicans), 1 × 10^5 cells/mL (M. smegmatis) or 5 × 10^5 cells per mL (other species). […] We transferred 2-µL aliquots from this dilution series to new 384-well microtiter plates while using a CyBio-Well 384-channel automated pipettor (Analytic Jena, Jena, Germany) and added 18 µL of the diluted suspension of each test species using a Viafill reagent dispenser (Integra), thus reducing the final peptide concentration 10-fold to the range 1024–0.03125 µg/mL. […] The growth of M. smegmatis was measured using the BacTiter-Glo luminescence test system (Promega, Madison, WI, USA). The growth of the other species was determined by visual inspection of the microtiter plate and turbidimetry based on the optical density at 600 nm (OD600). The MIC was defined as the peptide concentration at which no bacterial growth was observed. We supplemented the test medium with either 150 mM NaCl or 1.25 mM CaCl2 to represent monovalent and divalent cations to simulate physiological conditions.

[2] = tested on: Citrobacter freundii clinical isolate (1); assay: MIC, clinical isolates; assay type: cell-based; conditions: Table S1, RKI 604/16
Description: as §1, §2

[3] = tested on: Acinetobacter pittii clinical isolate (1); assay: MIC, clinical isolates; assay type: cell-based; conditions: Table S1, RKI 588/16
Description: as §1, §2

[4] = tested on: Stenotrophomonas maltophilia clinical isolates (2); assay: MIC, clinical isolates; assay type: cell-based; conditions: Table S1, RKI 729/15
Description: as §1, §2

[5] = tested on: Acinetobacter baumannii clinical isolates (20); assay: MIC, clinical isolates; assay type: cell-based
Description: as §1, §2

[6] = tested on: E. coli RKI 6A-6; assay: microbe, parasite or virus in culture; assay type: cell-based, Escherichia coli
Method in brief: (§3)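 Broth microdilution in cation-adjusted Mueller–Hinton broth, inoculum 5 × 10^5 cells/mL from 18 h cultures; final peptide range 1024–0.03125 µg/mL, medium supplemented with 150 mM NaCl or 1.25 mM CaCl2. Growth scored visually and by OD600; MIC = lowest concentration without growth.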

[7] = tested on: K. pneumoniae RKI 68/16; assay type: cell-based, Klebsiella pneumoniae
Description: as §1, §2

[8] = tested on: K. pneumoniae RKI 268/15; assay type: cell-based, Klebsiella pneumoniae
Description: as §1, §2

[9] = tested on: Stenotrophomonas maltophilia RKI 136/09; assay type: cell-based
Method in brief: as §3

[10] = tested on: Gram-negative clinical isolates; assay type: cell-based
Method in brief: as §3

[11] = tested on: human erythrocytes; assay: Hemolysis of human erythrocytes; conditions: hRBC in PBS, 3 h, 37 °C, A540; highest tested 1024 µg/mL
Description: Fresh citrated stabilized human whole blood was centrifuged at 500× g for 5 min. and the cell sediment was washed three times with phosphate buffered saline (PBS) before resuspending in PBS (50-fold the initial sample volume) to generate the human red blood cell (hRBC) suspension. The peptides were dissolved in sterile water at a concentration of 10.24 mg/mL and a dilution series was prepared in a 384-well microtiter plate, as above, to achieve the concentration range 10,240–0.3125 µg/mL in a volume of 50 µL. Triton X-100 (positive control) was diluted in sterile water to cover the concentration range 20–0.02%. We transferred 5-µL aliquots to new 384-well microtiter plates using the CyBio-Well 384-channel automated pipettor and added 45 µL of the hRBC suspension while using the Viafill reagent dispenser to achieve the final peptide concentration range 1024–0.031 µg/mL. After incubation at 37 °C. for 3 h, the plate was centrifuged and 20 μL of the supernatant from each well was transferred to a new microtiter plate. The quantity of released hemoglobin was determined by measuring the absorbance at 540 nm using a Lumistar plate reader (BMG Labtech, Ortenberg, Germany). The percent hemolysis was calculated by comparing to a control without peptide (no hemolysis) and a control with 2% Triton X-100 (100% hemolysis).

[12] = tested on: Proteus mirabilis DSM 4479; assay type: cell-based; conditions: CAMB, 18 h, 37 °C, n = 4
Method in brief: as §3

[13] = tested on: Mycobacterium smegmatis ATCC 607; assay type: cell-based; conditions: BHI, 48 h, 37 °C, BacTiter-Glo, n = 4
[14] = tested on: Listeria monocytogenes DSM 20600; assay type: cell-based; conditions: CAMB, 18 h, 37 °C, n = 4
Method in brief: as §3

[15] = tested on: Enterococcus faecium DSM 17050; assay type: cell-based; conditions: CAMB, 18 h, 37 °C, n = 4
Method in brief: as §3

[16] = tested on: Staphylococcus epidermidis ATCC 35984; assay type: cell-based; conditions: CAMB, 18 h, 37 °C, n = 4
Method in brief: as §3

## C[C@@H](O)[C@H]1C(=O)N2C(C(=O)O)=C(S[C@@H]3CN[C@H](C(=O)N(C)C)C3)[C@H](C)[C@H]12 [MEM, meropenem]
[1]
  MIC: 16 µg/mL (≈ 41.7 µM)
[2]
  MIC: > 64 µg/mL
[3]
  MIC: ≤ 0.5 µg/mL
[4]
  MIC: > 64 µg/mL
[5]; Table S1, RKI 3/15
  MIC: 32 µg/mL (≈ 83.4 µM)
[5]; Table S1, RKI 4/15
  MIC: 32 µg/mL (≈ 83.4 µM)
[5]; Table S1, RKI 11/16
  MIC: > 64 µg/mL
[5]; Table S1, RKI 12/16
  MIC: 64 µg/mL (≈ 167 µM)
[5]; Table S1, RKI 13/16
  MIC: > 64 µg/mL
[5]; Table S1, RKI 14/16
  MIC: > 64 µg/mL
[5]; Table S1, RKI 16/15
  MIC: > 64 µg/mL
[5]; Table S1, RKI 16/16
  MIC: > 64 µg/mL
[5]; Table S1, RKI 30/16
  MIC: > 64 µg/mL
[5]; Table S1, RKI 32/16
  MIC: 64 µg/mL (≈ 167 µM)
[5]; Table S1, RKI 70/16
  MIC: > 64 µg/mL
[5]; Table S1, RKI 230/15
  MIC: > 64 µg/mL
[5]; Table S1, RKI 231/15
  MIC: 64 µg/mL (≈ 167 µM)
[5]; Table S1, RKI 271/16
  MIC: > 64 µg/mL
[5]; Table S1, RKI 272/16
  MIC: > 64 µg/mL
[5]; Table S1, RKI 377/15
  MIC: 8 µg/mL (≈ 20.9 µM)
[5]; Table S1, RKI 523/16
  MIC: 32 µg/mL (≈ 83.4 µM)
[5]; Table S1, RKI 584/16
  MIC: ≤ 0.5 µg/mL
[5]; Table S1, RKI 596/16
  MIC: > 64 µg/mL
[6]; Escherichia coli, RKI6A6, Table S1, RKI 6A-6, read-out: MIC
  MIC: ≤ 0.5 µg/mL
[7]; Table S1, RKI 68/16
  MIC: ≤ 0.5 µg/mL
[8]; Table S1, RKI 268/15
  MIC: 16 µg/mL (≈ 41.7 µM)
[9]; Table S1, RKI 136/09
  MIC: > 64 µg/mL

## GFLKKIGKKLEGAVQRTRDATIQTIAVAQAAANVAATAKQ-NH2 [EtCec1-NH2]
[10]; 18 h
  MIC: ≥ 64 µg/mL

## GWLRDFGKRIERTGQNIRDATIQTIGIAQEAANVAATLK-NH2 [EtCec2-NH2]
[6]; Table 4, CAMB, n=3
  MIC: 64 µg/mL
[11]
  minimal hemolytic concentration: 512 µg/mL
[7]; Table 4, CAMB, n=3
  MIC: 128 µg/mL
[8]; Table 4, CAMB, n=3
  MIC: 64 µg/mL
[9]; CAMB adjusted to 150 mM NaCl, n=3
  MIC: 512 µg/mL
[9]; Table 4, CAMB, n=3
  MIC: 256 µg/mL
[12]
  MIC: >1024 µg/mL
[13]
  MIC: >1024 µg/mL
[14]
  MIC: >1024 µg/mL
[15]
  MIC: >1024 µg/mL
[10]; isolates of M. morganii and S. fonticola
  MIC: > 128 µg/mL
[16]
  MIC: >1024 µg/mL

## QFNMQGGGSPRQGFDVNANARFPIWQSQNARNSVHGTASYAQHLGGPYGNSRPNFGGGLQFT [EtDip, diptericin-like peptide of Eristalis tenax]
[11]
  minimal hemolytic concentration: > 1024 µg/mL
[12]
  MIC: >1024 µg/mL
[13]
  MIC: 64 µg/mL
[14]
  MIC: >1024 µg/mL
[15]
  MIC: >1024 µg/mL
[16]
  MIC: >1024 µg/mL
